# From patent publication US7202024B2, “bbc3 Gene promoter and methods for identifying modulators of apoptosis and bbc3 gene expression using a bbc3 gene promoter” (Immunogen Inc., priority 2001, dated 2007)
# Peptide text beside a SMILES is read from it. * marks the point of attachment. Cbz = O=C(OCc1ccccc1)*; CH2F = FC*
# Experiments:
# [1] = test system: Bbc3 protein; test: Western blot of Bbc3 protein in HT29 cells; assay type: cell-based, human; conditions: for ability of serum to suppress Bbc3 protein levels: HT29 cells in serum, 50 μM LY294002, 10 μM PD98059, 30 μM AG1478 or 50 μM AG1024; for ability of serum to suppress Bbc3 protein levels / Bbc3 protein expression: 24 hrs; for Bbc3 protein expression: 100 ng/ml IGF-1, 50 ng/ml EGF or 25 ng/ml PDGF
# Experimental: (§1) HT29 cells were incubated for one day in the absence of serum (−), and then incubated in media containing either serum, 100 ng/ml IGF-1, 50 ng/ml EGF, or 25 ng/ml PDGF, for 24 hrs. Bbc3 was detected by western blot analysis, followed by sequential probing of the blot with anti-Bax and anti-Bcl-xL antibodies.
# HT29 cells were cultured as in FIG. 6B and then incubated for 24 hrs in media containing either serum, 100 ng/ml IGF-1, or 100 ng/ml IGF-1 in the presence of 50 μM LY294002 (added 1 hr prior to IGF-1). Bbc3 was detected by western blot analysis.
# HT29 cells were grown in the presence of serum (lane 1), and then incubated for 24 hrs in the absence of serum, or in the presence of serum supplemented with 50 μMLY294002.
# HT29 cells were incubated for one day in the absence of serum (−), and then incubated in media containing either serum, 50 ng/ml EGF, or 50 ng/ml EGF+30 nM AG1478, for 24 hrs. Bbc3 was detected by western blot analysis.
# HT29 cells were cultured in the presence of serum for one day (+) and then incubated for 24 hrs with serum or without serum, or in the presence of serum supplemented with either 10 μM PD98059, 30 μM AG1478, or 50 μM AG1024. Bbc3 was detected by western blot analysis, followed by reprobing of the blot with anti-Bax.
# (§2) A mouse monoclonal antibody, KM140, was made against a recombinant GST-Bbc3 fusion protein. The KM140 epitope was mapped to residues 73–76 by probing a blot with arrayed overlapping Bbc3 peptides (Research Genetics). Cells were plated at 3–10×10^6 cells per 100 mm dish in either serum containing (10% FBS), or serum free media (0% FBS, 0.1% BSA). Cell lysates were prepared, electrophoresed (100 to 200 μg per lane) on 4–20% polyacrylamide reducing gels, and analyzed by western blotting as described previously (Chittenden, T., et al., EMBO J. 14:5589–96 (1995)).
# [2] = test system: Bax; test: Western blot of Bax in HT29 cells; assay type: cell-based, human; conditions: serum-starved HT29 cells, 24 hrs; 100 ng/ml IGF-1 or 50 ng/ml EGF
# Experimental: as §1, §2
# [3] = test system: Bcl-xL; test: Western blot of Bcl-xL in HT29 cells; assay type: cell-based, human; conditions: serum-starved HT29 cells, 24 hrs; 100 ng/ml IGF-1 or 50 ng/ml EGF
# Experimental: as §1, §2
# [4] = test system: bbc3 gene promoter; test: bbc3 gene promoter luciferase reporter assay (pGL3/0.9) in HeLa/Bcl-xL cells; assay type: cell-based, human; conditions: pGL3/0.9, no serum, 100 ng/ml IGF-1, 24 hrs
# Experimental: The pGL3/0.9 bbc3 gene promoter luciferase reporter plasmid was transfected into HeLa-Bcl-xL cells. At 24 hrs after transfection, cells were incubated for an additional 24 hrs in the presence of 20% serum (+) with or without 50 μM LY294002, or in the absence of serum (−) with or without 100 ng/ml IGF-1. Luciferase activity was measured and normalized for transfection efficiency (β-galactosidase).
# Additional experiments were performed to determine whether the bbc3 gene promoter was regulated by signal transduction pathways known to play a role in cell survival. A bbc3 gene promoter-luciferase reporter construct containing 0.9 kb of the bbc3 gene promoter region, was transfected into HeLa/Bcl-xL cells and the activity of the promoter measured by luciferase assays 48 hours after transfection. […] Thus, a PI-3 kinase dependent pathway controls, at least in part, the activity of the bbc3 gene promoter. […]
# Luciferase assays were performed using the Dual-Light System (Tropix) for the combined detection of luciferase and β-galactosidase. […] Luciferase and β-galactosidase activities were measured 24 hours following transfection. […] Cell culture medium was changed to either DMEM containing 20% serum, or DMEM without serum, 24 hours following transfection and luciferase/β-galactosidase levels were measured after an additional 24 hours of incubation. […]
# [5] = test system: bbc3 mRNA; test: Northern blot of bbc3 mRNA in NIH3T3 cells; assay type: cell-based, murine; conditions: etoposide 50 μM, 6 hours
# Experimental: (§3) Northern blots were hybridized with a murine bbc3 cDNA probe, followed by re-hybridization with an actin probe.
# To evaluate whether the activity of bbc3 might be under transcriptional control, the expression of bbc3 was examined in response to apoptotic stimuli likely to involve new mRNA/protein synthesis.
# (§4) Total RNA was isolated from mouse thymocytes (RNeasy system, Qiagen). Poly(A)+RNA (FastTract system, Invitrogen) was prepared in all other experiments. 10 μg of total RNA or 3 μg of poly(A)+RNA per lane was denatured and separated by electrophoresis in 1% formaldehyde agarose gels. Northern blotting was performed following standard methods.
# [6] = test system: bbc3 mRNA; test: Northern blot of bbc3 mRNA in M1p53ts cells after temperature shift; assay type: cell-based, murine; conditions: M1p53ts cells shifted to 32° C. for 6 hours in the presence of IL-6
# Excerpt: as §3
# (Yonish-Rouach, E., et al., Nature 352:345–7 (1991)). […] (FIG. 3C). […] (FIG. 3C).
# (§5) All cell lines used were obtained from ATCC, unless otherwise noted. HeLa/Bcl-XL cells were generated by stable transfection of HeLa cells with a vector encoding a Flag-epitope tagged BCl-xL. Murine myeloid leukemia M1 cells containing a temperature sensitive p53-val135 mutant (M1p53ts), and E1A/ras transformed p53^−/−mouse embryonic fibroblasts containing a p53-estrogen receptor fusion, have been described previously (Vater, C. A., et al., Oncogene 13:739–48 (1996); Yonish-Rouach, E., et al., Nature 352:345–7 (1991)).
# as §4
# [7] = test system: PARP; test: Western blot of PARP cleavage in serum-starved Jurkat cells; assay type: cell-based, human; conditions: without serum 24 hrs, z-VAD 100 μM
# Excerpt: (§6) Bbc3 and PARP were detected by western blot analysis.
# (§7) Deprivation of serum is a strong pro-apoptotic stimulus for many cultured tumor cell lines, triggering cell death or sensitizing cells to other apoptotic stimuli. Thus, the effect of serum deprivation on bbc3 mRNA expression and Bbc3 protein levels was also examined, using a monoclonal antibody generated against recombinant human Bbc3. A striking increase in Bbc3 protein levels was observed upon serum deprivation in multiple human tumor cell lines (FIG. 5B), including cell lines that lack functional p53. […] Therefore, the induction of Bbc3 precedes caspase activation, and is not simply a response to the engagement of the cell death program.
# as §2
# [8] = test system: Bbc3 protein; test: Western blot of Bbc3 in serum-starved Jurkat cells; assay type: cell-based, human; conditions: without serum 24 hrs, z-VAD 100 μM
# Excerpt: as §6, §7, §2
# [9] = target: GST-Bcl-xL (Homo sapiens, UniProt Q07817); test: Bcl-xL competition binding assay (ELISA, immobilized Bak BH3 peptide); conditions: competition with immobilized Bak BH3 peptide
# Sequence of GST-Bcl-xL (Q07817 whole entry): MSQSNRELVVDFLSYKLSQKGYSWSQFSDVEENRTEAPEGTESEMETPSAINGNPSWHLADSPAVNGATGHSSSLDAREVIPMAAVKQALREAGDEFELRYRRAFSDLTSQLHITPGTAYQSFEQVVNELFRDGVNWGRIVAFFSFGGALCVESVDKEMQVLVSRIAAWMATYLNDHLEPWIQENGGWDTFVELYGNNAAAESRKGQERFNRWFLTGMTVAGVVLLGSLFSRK
# Experimental: Binding of GST-Bcl-xL to an immobilized Bak BH3 peptide was measured by ELISA (triplicate samples, +S.D.), in the presence of the indicated concentrations of a competing synthetic Bbc3 BH3 or Bak BH3 peptide.
# Cell lysates were prepared and co-immunoprecipitation assays were performed as described previously (Chittenden, T., et al., EMBO J. 14:5589–96 (1995)). The Bcl-xL competition binding assay was performed as previously described (Zhou, X. M., et al., J. Biol. Chem. 275:25046–51 (2000)), using synthetic BH3 peptides comprising residues 133–152 of Bbc3, and residues 70–89 of Bak.
# [10] = test system: bbc3 mRNA; test: Northern blot of bbc3 mRNA in E1a/Ras/p53MER mouse fibroblast cell line; assay type: cell-based; conditions: p53-estrogen receptor fusion cells, 4-OHT 100 nM, 5 hours
# Excerpt: as §3
# Cell death induced by etoposide and other DNA-damaging drugs in murine fibroblasts is mediated, at least in part, by the p53 tumor suppressor (Levine, A. J., Cell 88:323–31 (1997); Vousden, K. H., Cell 103:691–4 (2000)).
# as §5, §4
compound,measurement,setting,value
COc1cc2ncnc(Nc3cccc(Cl)c3)c2cc1OC [AG1478],ability of serum to suppress Bbc3 protein levels,[1],blocked the ability of EGF and serum to suppress Bbc3 protein expression
same,ability of EGF to suppress Bbc3 protein expression,"[1]; serum-starved HT29 cells, 50 ng/ml EGF + 30 nM AG1478, 24 hrs",blocked the ability of EGF and serum to suppress Bbc3 protein expression
PDGF,Bbc3 protein expression,[1]; serum-starved HT29 cells,failed to suppress Bbc3 levels
CC(C)(C)c1cc(C=C(C#N)C#N)cc(Br)c1O [tyrphostin AG1024],ability of serum to suppress Bbc3 protein levels,[1],impaired the ability of serum to suppress Bbc3 protein expression
"EGF: growth factor with broad anti-apoptotic activity (NSDSECPLSHDGYCLHDGVCMYIEALDKYACNCVVGYIGERCQYRDLKWWELR; UniProt P01133 971-1023, looked up)",Bbc3 protein expression,[1]; serum-starved HT29 cells,strongly inhibited Bbc3 protein expression
same,Bax protein level,[2],no effect
same,Bcl-xL protein level,[3],no effect
IGF-1: growth factor with broad anti-apoptotic activity,Bbc3 protein expression,[1]; serum-starved HT29 cells,strongly inhibited Bbc3 protein expression
same,Bax protein level,[2],no effect
same,induction of bbc3 gene promoter activity (luciferase) in the absence of serum,[4],substantially reduced
same,Bcl-xL protein level,[3],no effect
COc1cc([C@@H]2c3cc4c(cc3[C@@H](O[C@@H]3O[C@@H]5CO[C@@H](C)O[C@H]5[C@H](O)[C@H]3O)[C@H]3COC(=O)[C@H]23)OCO4)cc(OC)c1O [etoposide],bbc3 mRNA levels,[5],rapid induction of bbc3 mRNA levels
COc1cccc(-c2cc(=O)c3ccccc3o2)c1N [PD98059],ability of serum to suppress Bbc3 protein levels,[1],impaired the ability of serum to suppress Bbc3 protein expression
"IL-6: IL-6, which suppresses apoptosis induced by p53 in M1 cells",induction of bbc3 mRNA by wild-type p53,[6],did not prevent induction of bbc3 mRNA
CC(NC(=O)C(NC(=O)OCc1ccccc1)C(C)C)C(=O)NC(CC(=O)O)C(=O)CF (stereo not drawn) [z-VAD] (Cbz-Val-Ala-Asp-CH2F; configuration not given here),cleavage of the caspase substrate PARP,[7],"prevented cleavage of the caspase substrate, PARP"
same,induction of Bbc3 protein levels by serum deprivation,[8],no impact on the induction of Bbc3 protein levels
Bbc3 BH3 peptide: 20 amino acid synthetic peptide encompassing the Bbc3 BH3 domain (residues 133 to 152) (WAREIGAQLRRMADDLNAQY),binding affinity to recombinant GST-Bcl-xL in vitro,[9],affinity comparable to a previously characterized Bak BH3 peptide
4-hydroxytamoxifen [4-OHT],bbc3 mRNA levels,[10],sufficient to induce bbc3 mRNA levels
